23 molecules from patent US12544374B2, “AZA-quinoline compounds and uses thereof” (Novartis AG, priority 2019, dated 2026) can be followed below.

The target in one test is EZH2 (Homo sapiens (Human), UniProt Q15910). In words: ELISA (H3K27 methylation) assay in G401 cell. The class given is cell-based. The settings on record: (b) ELISA Qualified assay, 48 h. As for the experimental part:
Representative compounds of the invention were serially and separately diluted 3-fold in DO to obtain a total of eight or twelve concentrations. Then the compounds were added to G401 cell cultured in 384-well plate at 1:500 dilution to obtain the highest concentration of 20 μM. The cells were further cultured for 48 h before ELISA procedure.
ELISA protocol: Cell lysates were transferred to the wells of a 384-well plate and the final volume was adjusted to 50 μL per well with PBS. The plate was sealed, centrifuged at 2,000 rpm for 2 min and incubated at 4° C. for about 16 h. The plate was washed with TBST buffer (1×TBS (10×TBS: 24.2 g Tris (Sigma, T6066), 80 g NaCl (Sigma, S3014) to 1 L of water and adjust pH to 7.6 with HCl) with 0.1% Tween-20). Blocking buffer (TBST, 5% BSA; 50 μL per well) was added and the plate was incubated for 1 h at rt. The blocking buffer was removed and primary antibody was added (30 μL per well). […] The primary antibody was incubated in the plate at rt for 1 h. The wells were washed with TBST and incubated with secondary antibody for 1 h at rt.
After 1 h of incubation at rt, the wells were washed with TBST. […] The signal was read using a PerkinElmer Envision Reader. The H3K27 methylation readouts were normalized using H3 signal and then percentage inhibition was calculated against the samples treated with DO. The data were fit to a dose response curve using the program Helios to get the IC50 values of the test compound.
In general terms: In an ELISA, binding on a coated surface is turned into a signal by an enzyme label.

Test [1] deals with wild type PRC2 (wtPRC2) complex (Homo sapiens (Human), UniProt Q15910). In words: EZH2 LC-MS assay (LC-Qualified). The class given is biochemical. The settings on record: (a) LC-Qualified assay. As for the experimental part: Representative compounds of the invention were serially and separately diluted 3-fold in DMSO to obtain twelve concentrations. […] Solutions (6 μL) of 80 nM wild type PRC2 (wtPRC2) complex and 60 μM SAM in reaction buffer (20 mM Tris, pH 8.0, 0.1% BSA, 0.01% Triton, 0.5 mM DTT) were added to the wells that were then incubated with the test compound for 20 min. A 6 μL solution of 3 μM of the substrate peptide H3K27me1 (histone H3[21-44]-K27me1-biotin) and 6 μM regulatory peptide H3K27me3 (histone H3[21-44]-K27me3) in reaction buffer was added to initiate each reaction. […] The data were fit to a dose response equation using the program Helios to get the IC50 values of the test compound.

For orientation: IC50 means the concentration that inhibits the measured activity by half. Higher therefore signals weaker potency in that assay.

wild type PRC2 (wtPRC2) complex, sequence (Q15910 whole entry): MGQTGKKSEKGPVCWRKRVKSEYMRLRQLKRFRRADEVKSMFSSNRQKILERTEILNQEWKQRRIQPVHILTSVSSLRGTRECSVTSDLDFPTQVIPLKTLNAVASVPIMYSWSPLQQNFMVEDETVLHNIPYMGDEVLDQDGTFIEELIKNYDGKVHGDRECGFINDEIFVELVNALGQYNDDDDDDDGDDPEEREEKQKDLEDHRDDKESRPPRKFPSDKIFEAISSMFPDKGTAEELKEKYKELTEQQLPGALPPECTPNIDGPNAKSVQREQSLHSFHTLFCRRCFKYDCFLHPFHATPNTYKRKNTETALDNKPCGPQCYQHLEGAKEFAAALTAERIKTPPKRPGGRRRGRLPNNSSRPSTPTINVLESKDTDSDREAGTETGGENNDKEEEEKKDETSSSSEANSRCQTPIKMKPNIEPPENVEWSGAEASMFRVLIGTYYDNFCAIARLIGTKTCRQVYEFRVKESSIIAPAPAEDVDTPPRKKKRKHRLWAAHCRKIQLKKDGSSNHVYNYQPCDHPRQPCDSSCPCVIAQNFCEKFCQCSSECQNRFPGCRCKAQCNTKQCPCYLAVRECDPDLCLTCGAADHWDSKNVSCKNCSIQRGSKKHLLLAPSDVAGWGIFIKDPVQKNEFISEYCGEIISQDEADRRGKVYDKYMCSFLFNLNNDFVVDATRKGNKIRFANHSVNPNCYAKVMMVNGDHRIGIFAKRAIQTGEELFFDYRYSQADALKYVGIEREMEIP
wild type PRC2 (wtPRC2) complex, sequence (Q15022 whole entry partner): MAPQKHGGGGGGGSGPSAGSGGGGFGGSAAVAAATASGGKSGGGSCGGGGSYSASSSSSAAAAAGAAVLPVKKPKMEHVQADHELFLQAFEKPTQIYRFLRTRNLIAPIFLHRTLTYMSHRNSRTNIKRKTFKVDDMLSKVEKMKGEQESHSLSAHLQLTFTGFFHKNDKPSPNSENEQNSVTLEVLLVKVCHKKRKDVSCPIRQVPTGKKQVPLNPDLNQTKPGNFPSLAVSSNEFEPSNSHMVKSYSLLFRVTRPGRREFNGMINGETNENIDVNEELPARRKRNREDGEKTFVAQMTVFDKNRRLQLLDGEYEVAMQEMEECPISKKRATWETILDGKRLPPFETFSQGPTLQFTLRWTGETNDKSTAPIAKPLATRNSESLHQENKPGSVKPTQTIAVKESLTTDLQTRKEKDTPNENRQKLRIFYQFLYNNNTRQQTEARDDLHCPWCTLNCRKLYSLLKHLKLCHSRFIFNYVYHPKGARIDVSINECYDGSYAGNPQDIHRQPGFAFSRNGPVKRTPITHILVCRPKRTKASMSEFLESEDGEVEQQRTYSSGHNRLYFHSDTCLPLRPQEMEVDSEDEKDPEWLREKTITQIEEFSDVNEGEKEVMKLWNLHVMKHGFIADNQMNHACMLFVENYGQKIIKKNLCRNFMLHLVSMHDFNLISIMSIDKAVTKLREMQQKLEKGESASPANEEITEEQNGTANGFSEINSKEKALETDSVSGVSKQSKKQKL
wild type PRC2 (wtPRC2) complex, sequence (O75530 whole entry partner): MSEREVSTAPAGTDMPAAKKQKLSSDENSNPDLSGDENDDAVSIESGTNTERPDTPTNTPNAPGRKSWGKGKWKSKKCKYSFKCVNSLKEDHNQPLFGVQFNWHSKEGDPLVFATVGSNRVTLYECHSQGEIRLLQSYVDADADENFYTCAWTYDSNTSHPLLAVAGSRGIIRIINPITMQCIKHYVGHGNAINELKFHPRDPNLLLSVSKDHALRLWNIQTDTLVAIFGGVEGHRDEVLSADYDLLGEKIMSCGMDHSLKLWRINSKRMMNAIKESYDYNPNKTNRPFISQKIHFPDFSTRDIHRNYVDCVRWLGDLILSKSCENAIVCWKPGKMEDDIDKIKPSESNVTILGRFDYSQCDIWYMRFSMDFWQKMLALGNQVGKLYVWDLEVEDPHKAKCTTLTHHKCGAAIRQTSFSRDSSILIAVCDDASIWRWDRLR
wild type PRC2 (wtPRC2) complex, sequence (Q09028 whole entry partner): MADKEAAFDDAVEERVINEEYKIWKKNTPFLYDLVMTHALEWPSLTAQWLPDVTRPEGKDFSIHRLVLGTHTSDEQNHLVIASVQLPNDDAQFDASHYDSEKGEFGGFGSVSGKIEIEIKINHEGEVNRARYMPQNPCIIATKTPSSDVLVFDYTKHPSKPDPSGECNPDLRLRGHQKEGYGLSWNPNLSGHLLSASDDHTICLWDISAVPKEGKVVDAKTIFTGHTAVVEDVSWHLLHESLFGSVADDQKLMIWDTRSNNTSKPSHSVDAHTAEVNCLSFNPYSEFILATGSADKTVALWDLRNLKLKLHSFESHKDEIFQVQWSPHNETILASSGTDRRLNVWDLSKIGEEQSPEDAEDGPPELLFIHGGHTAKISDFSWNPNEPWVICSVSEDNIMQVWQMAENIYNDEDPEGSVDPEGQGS
wild type PRC2 (wtPRC2) complex, sequence (Q6ZN18 whole entry partner): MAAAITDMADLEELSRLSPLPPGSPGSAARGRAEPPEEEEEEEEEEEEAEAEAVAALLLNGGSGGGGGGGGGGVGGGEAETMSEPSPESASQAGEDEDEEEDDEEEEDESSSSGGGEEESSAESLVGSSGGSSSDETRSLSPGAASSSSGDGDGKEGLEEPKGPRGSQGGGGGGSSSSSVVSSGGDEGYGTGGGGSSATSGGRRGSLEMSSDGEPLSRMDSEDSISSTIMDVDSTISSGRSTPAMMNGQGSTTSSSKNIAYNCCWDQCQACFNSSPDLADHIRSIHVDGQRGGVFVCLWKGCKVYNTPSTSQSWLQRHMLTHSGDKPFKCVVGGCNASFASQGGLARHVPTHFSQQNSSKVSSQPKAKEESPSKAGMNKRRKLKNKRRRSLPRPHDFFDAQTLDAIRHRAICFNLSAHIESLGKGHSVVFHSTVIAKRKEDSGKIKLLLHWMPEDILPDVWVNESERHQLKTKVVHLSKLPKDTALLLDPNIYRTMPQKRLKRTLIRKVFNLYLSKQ
EZH2, sequence (Q15910 whole entry): as the sequence (Q15910 whole entry) above
EZH2, sequence (Q15022 whole entry partner): as the sequence (Q15022 whole entry partner) above
EZH2, sequence (O75530 whole entry partner): as the sequence (O75530 whole entry partner) above
EZH2, sequence (Q09028 whole entry partner): as the sequence (Q09028 whole entry partner) above

As to `Clc1nccc2ccc(N[C@H]3CC[C@H](CNc4ncc(-c5nnc[nH]5)cn4)CC3)nc12` [Compound C67, N-((1,4-trans)-4-(((5-(4H-1,2,4-triazol-3-yl)pyrimidin-2-yl)amino)methyl)cyclohexyl)-8-chloro-1,7-naphthyridin-2-amine], the IC50 against EZH2 was determined as 0.036 µM; in test [1], 0.029 µM.
For the molecule `CNc1nccc2ccc(N[C@H]3CC[C@H](CNc4ncc(N)cn4)CC3)nc12` [Compound C62, N^2-((1,4-trans)-4-(((5-aminopyrimidin-2-yl)amino)methyl)cyclohexyl)-N^8-methyl-1,7-naphthyridine-2,8-diamine], the concentration for half-maximal inhibition (IC50) amounted to 0.031 µM against EZH2 and 0.149 µM in test [1].
As to `Nc1cnc(NC[C@H]2CC[C@H](Nc3ccc4ccnc(OC(F)F)c4n3)CC2)nc1` [Compound C66, N^2-(((1,4-trans)-4-((8-(difluoromethoxy)-1,7-naphthyridin-2-yl)amino)cyclohexyl)methyl)pyrimidine-2,5-diamine], the IC50 at EZH2 came to 0.16 µM; in test [1], 0.204 µM.
With `COc1nccc2ccc(N[C@H]3CC[C@H](CNc4ncc(C(=O)N5CCOCC5)cn4)CC3)nc12` [Compound C10, (2-((((1,4-trans)-4-((8-methoxy-1,7-naphthyridin-2-yl)amino)cyclohexyl)methyl)amino)pyrimidin-5-yl)(morpholino)methanone], the concentration for half-maximal inhibition (IC50) against EZH2 amounted to 0.191 µM; in test [1], 0.194 µM.
With `O=C(Nc1cnc(NC[C@H]2CC[C@H](Nc3ccc4ccnc(Cl)c4n3)CC2)nc1)OCC1COC1` [Compound C18, Oxetan-3-ylmethyl (2-((((1,4-trans)-4-((8-chloro-1,7-naphthyridin-2-yl)amino)cyclohexyl)methyl)amino)pyrimidin-5-yl)carbamate], the IC50 against EZH2 worked out at 0.039 µM; in test [1], 0.028 µM.
The matching figures for `COc1nccc2ccc(N[C@H]3CC[C@H](CNc4ncc(C#N)cn4)CC3)nc12` [Compound C4, 2-((((1,4-trans)-4-((8-methoxy-1,7-naphthyridin-2-yl)amino)cyclohexyl)methyl)amino)pyrimidine-5-carbonitrile]: 0.031 µM and 0.046 µM.
Consider `O=C(NCc1cnc(NC[C@H]2CC[C@H](Nc3ccc4ccnc(Cl)c4n3)CC2)nc1)C1COC1` [Compound C59, N-((2-((((1,4-trans)-4-((8-chloro-1,7-naphthyridin-2-yl)amino)cyclohexyl)methyl)amino)pyrimidin-5-yl)methyl)oxetane-3-carboxamide], for which the IC50 against EZH2 stood at 0.033 µM; in test [1], 0.045 µM.
With `COc1nccc2ccc(N[C@H]3CC[C@H](CNc4ncc(NC(=O)CO)cn4)CC3)nc12` [Compound C7, 2-hydroxy-N-(2-((((1,4-trans)-4-((8-methoxy-1,7-naphthyridin-2-yl)amino)cyclohexyl)methyl)amino)pyrimidin-5-yl)acetamide], the figures for the IC50 (at EZH2; in test [1]) were 0.131 µM and 0.111 µM, respectively.
In the case of `OCCc1cnc(NC[C@H]2CC[C@H](Nc3ccc4ccnc(Cl)c4n3)CC2)nc1` [Compound C46, 2-(2-((((1,4-trans)-4-((8-chloro-1,7-naphthyridin-2-yl)amino)cyclohexyl)methyl)amino)pyrimidin-5-yl)ethan-1-ol], the results for the concentration for half-maximal inhibition (IC50) (at EZH2; in test [1]) were 0.013 µM and 0.012 µM, respectively.
Turning to `CC1(NCCc2cnc(NC[C@H]3CC[C@H](Nc4ccc5ccnc(Cl)c5n4)CC3)nc2)COC1` [Compound C47, 8-chloro-N-((1,4-trans)-4-(((5-(2-((3-methyloxetan-3-yl)amino)ethyl)pyrimidin-2-yl)amino)methyl)cyclohexyl)-1,7-naphthyridin-2-amine], the IC50 against EZH2 was determined as 0.032 µM; in test [1], 0.051 µM.
Consider `O=C(NC1COC1)C(CO)c1cnc(NC[C@H]2CC[C@H](Nc3ccc4ccnc(Cl)c4n3)CC2)nc1` (stereo partly drawn) [Compound C72, 2-(2-((((1,4-trans)-4-((8-chloro-1,7-naphthyridin-2-yl)amino)cyclohexyl)methyl)amino)pyrimidin-5-yl)-3-hydroxy-N-(oxetan-3-yl)propanamide], for which the IC50 at EZH2 was determined as 0.056 µM; in test [1], 0.049 µM.
The matching figures for `OC1CN(Cc2cnc(NC[C@H]3CC[C@H](Nc4ccc5ccnc(Cl)c5n4)CC3)nc2)C1` [Compound C29, 1-((2-((((1,4-trans)-4-((8-chloro-1,7-naphthyridin-2-yl)amino)cyclohexyl)methyl)amino)pyrimidin-5-yl)methyl)azetidin-3-ol]: 0.022 µM and 0.02 µM.
With `COc1nccc2ccc(N[C@H]3CC[C@H](CNc4ncc(-c5ncn[nH]5)cn4)CC3)nc12` [Compound C12, N-((1,4-trans)-4-(((5-(1H-1,2,4-triazol-5-yl)pyrimidin-2-yl)amino)methyl)cyclohexyl)-8-methoxy-1,7-naphthyridin-2-amine], the IC50 was 0.052 µM against EZH2 and 0.075 µM in test [1].
For `COc1nccc2ccc(N[C@H]3CC[C@H](CNc4ncc(NC(=O)C5CN(C)C5)cn4)CC3)nc12` [Compound C3, N-(2-((((1,4-trans)-4-((8-methoxy-1,7-naphthyridin-2-yl)amino)cyclohexyl)methyl)amino)pyrimidin-5-yl)-1-methylazetidine-3-carboxamide], the IC50 against EZH2 turned out to be 0.025 µM; in test [1] it was 0.054 µM.
On the same counts, the results for `COc1nccc2ccc(N[C@H]3CC[C@H](CNc4ncc(C(=O)NCC(C)O)cn4)CC3)nc12` (stereo partly drawn) [Compound C9, N-(2-hydroxypropyl)-2-((((1,4-trans)-4-((8-methoxy-1,7-naphthyridin-2-yl)amino)cyclohexyl)methyl)amino)pyrimidine-5-carboxamide] are 0.061 µM and 0.105 µM.
For `O=C(c1cnc(NC[C@H]2CC[C@H](Nc3ccc4ccnc(Cl)c4n3)CC2)nc1)N1CCNCC1` [Compound C24, (2-((((1,4-trans)-4-((8-chloro-1,7-naphthyridin-2-yl)amino)cyclohexyl)methyl)amino)pyrimidin-5-yl)(piperazin-1-yl)methanone], the IC50 against EZH2 worked out at 0.296 µM; in test [1], 0.112 µM.
Regarding `CC(C(=O)N1CC(O)C1)c1cnc(NC[C@H]2CC[C@H](Nc3ccc4ccnc(Cl)c4n3)CC2)nc1` (mixture of isomers) [Compound C69, 2-(2-((((1,4-trans)-4-((8-chloro-1,7-naphthyridin-2-yl)amino)cyclohexyl)methyl)amino)pyrimidin-5-yl)-1-(3-hydroxyazetidin-1-yl)propan-1-one], the IC50 amounted to 0.136 µM against EZH2 and 0.035 µM in test [1].
Turning to `Clc1nccc2ccc(N[C@H]3CC[C@H](CNc4ncc(CCNC5COC5)cn4)CC3)nc12` [Compound C48, 8-chloro-N-((1,4-trans)-4-(((5-(2-(oxetan-3-ylamino)ethyl)pyrimidin-2-yl)amino)methyl)cyclohexyl)-1,7-naphthyridin-2-amine], the IC50 at EZH2 came to 0.027 µM; in test [1] it was 0.039 µM.
On the same counts, the results for `OC1CC(NCc2cnc(NC[C@H]3CC[C@H](Nc4ccc5ccnc(Cl)c5n4)CC3)nc2)C1` (stereo partly drawn) [Compound C33, 3-(((2-((((1,4-trans)-4-((8-chloro-1,7-naphthyridin-2-yl)amino)cyclohexyl)methyl)amino)pyrimidin-5-yl)methyl)amino)cyclobutan-1-ol] are 0.044 µM and 0.042 µM.
Regarding `COC1CC(NCc2cnc(NC[C@H]3CC[C@H](Nc4ccc5ccnc(Cl)c5n4)CC3)nc2)C1` (stereo partly drawn) [Compound C32, 8-chloro-N-((1,4-trans)-4-(((5-(((3-methoxycyclobutyl)amino)methyl)pyrimidin-2-yl)amino)methyl)cyclohexyl)-1,7-naphthyridin-2-amine], the results for the IC50 (on EZH2; in test [1]) were 0.498 µM and 0.079 µM, respectively.
The matching figures for `CN(C)C1CCN(C(=O)Cc2cnc(NC[C@H]3CC[C@H](Nc4ccc5ccnc(Cl)c5n4)CC3)nc2)C1` (stereo partly drawn) [Compound C39, 2-(2-((((1,4-trans)-4-((8-chloro-1,7-naphthyridin-2-yl)amino)cyclohexyl)methyl)amino)pyrimidin-5-yl)-1-(3-(dimethylamino)pyrrolidin-1-yl)ethan-1-one]: 0.02 µM and 0.081 µM.
At EZH2, `Clc1nccc2ccc(NC3CCC(CNc4ncc(COC5COC5)cn4)CC3)nc12` (stereo not drawn) [Compound C35, 8-chloro-N-((1,4-trans)-4-(((5-((oxetan-3-yloxy)methyl)pyrimidin-2-yl)amino)methyl)cyclohexyl)-1,7-naphthyridin-2-amine] yielded an IC50 of 0.024 µM.
At EZH2, `O=C(CO)Nc1cnc(NC[C@H]2CC[C@H](Nc3ccc4ccnc(Cl)c4n3)CC2)nc1` [Compound C19, N-(2-((((1,4-trans)-4-((8-chloro-1,7-naphthyridin-2-yl)amino)cyclohexyl)methyl)amino)pyrimidin-5-yl)-2-hydroxyacetamide] came in with a half-inhibitory concentration (IC50) of 0.069 µM.
